# From US20220133753A1, “COMPOSITIONS AND METHODS USEFUL FOR TREATING DISEASES CHARACTERIZED BY INSUFFICIENT PANTOTHENATE KINASE ACTIVITY” (Comet Therapeutics, Inc., priority 2016, published 2022)
# Tests used:
# HEK293 cells = assay: HoPan treatment of mammalian HEK293 cells in combination with CoA or 4′-phosphopantetheine; type: cell-based, human; settings: HoPan treated HEK293 cells, compound added to the medium
# Experimental: HoPan treatment of mammalian HEK293 Cells in combination with CoA and 4′-phosphopantetheine treatment: HEK293 cells were maintained in dMEM (Invitrogen) supplemented with 10% fetal calf serum (Gibco) and antibiotics (penicillin/streptomycin, Invitrogen). For HoPan treatment, cells were cultured in custom made dMEM without vitamin B5 (Thermo Scientific) supplemented with dialyzed FCS (Thermo Scientific). CoA or PPanSH was added to HEK293 cells for the final concentration of 25 uM, either in the presence or absence of HoPan (0.5 mM) for 4 days, followed by analysis for phenotype and rescue efficiency of CoA and PPanSH.
# Western blot analysis and Antibodies: For Western blot analysis, cells were collected and washed with phosphate buffer saline (PBS), followed by centrifugation. The cells were lysed and sonicated in 1X Laemmli Sample Buffer and boiled for 5 min with 5% β-mercaptoethanol (Sigma). Protein content was determined using DC protein assay (BioRad). Equal amounts of protein were loaded on a 10 or 12.5% SDS-PAGE gel, transferred onto PVDF membranes and blocked with 5% milk in PBS/0.1% Tween, followed by overnight incubation with primary antibodies. The primary antibodies used were: rabbit-anti dPANK/fbl, 1:4000 Eurogentec custom made as described previously5, mouse anti-tubulin (Sigma Aldrich Cat no: T5168, 1:5000), anti-acetyl-Histone3 (Active Motif Cat no: 39139, 1:2000), anti GAPDH (Fitzgerald Cat no: 10R-G109a, 1:10000), rabbit anti COASY (Abcam Cat no: AB129012, 1:1000). Appropriate HRP-conjugated secondary antibodies (Amersham) were used and detection was performed using enhanced chemi-luminescence (Pierce cat nog: 32106) and Amersham hyperfilm (GE Healthcare). Band intensities were quantified with Image-studio software.
# [1] = tested on: dPANK/fbl RNAi treated Drosophila S2 cells; assay: dPANK/fbl RNA interference in Drosophila S2 cells, rescue by CoA or 4′-phosphopantetheine; type: cell-based; settings: compound added to the medium; for histone (protein) acetylation of dPANK/fbl RNAi treated S2 cells: immunofluorescence
# Experimental: Drosophila S2 Cell Culture, RNA Interference, and CoA and 4′-phosphopantetheine treatment: Drosophila Schneider's S2 cells were maintained at 25° C. in Schneider's Drosophila medium (Invitrogen) supplemented with 10% heat inactivated fetal calf serum (Gibco) and antibiotics (penicillin/streptomycin, Invitrogen) under laboratory conditions. Synthesis of RNAi constructs and RNA interference (dsRNA) treatment was carried out as described previously (Siudeja K et al, EMBO Mol Med 3, 755-766 (2011)). Non-relevant (human gene; hMAZ) dsRNA was used as control. The cells were incubated for 4 days to induce an efficient knock-down. Cells were then subcultured, with or without CoA (Sigma-Aldrich, Cat. No: C4780—which is used for all the experiments wherever stated below) or 4′-phosphopantetheine (PPanSH) at different concentrations and were maintained for additional 3 days until analysis for rescue efficiency of the compounds was performed. The stock solutions of compounds were made in sterile water and stored in −20° C. until use.
# (§1) Drosophila S2 Cell Immunofluorescence Staining: For immunofluorescence Drosophila S2 cells were seeded on Poly-L-Lysine coated (Sigma-Aldrich) glass microscope slides and allowed to settle for 45 min. Cells were fixed with 3.7% formaldehyde (Sigma Aldrich) for 20 min, washed briefly with PBS+0.1% Triton-X-100 (Sigma Aldrich) and permeabilized with PBS+0.2% Triton-X-100 for 20 min. The slides were incubated in primary antibody (rabbit anti-AcLys, Cell Signaling Cat No: 9441, 1:500) to visualize histone acetylation levels in PBS+0.1% Triton-X-100 overnight and after an additional washing step in PBS+0.1% Triton-X-100 they were incubated in secondary goat anti-rabbit-Alexa488 antibody (Molecular Probes) for two hours at room temperature (RT). F-actin was detected with Rhodamin-Phalloidin (20 U/ml)(Invitrogen) and DNA by staining with DAPI (0.2 ug/ml) (Thermo Scientific). Finally the samples were mounted in 80% glycerol and analyzed using a Leica fluorescence microscope with Leica software. Adobe Photoshop and Illustrator (Adobe Systems Incorporated, San Jose, Calif., USA) were used for image assembly.
# [2] = Stability of CoA in PBS, medium and fetal calf serum by HPLC; settings: formed from CoA in serum, time course of 6 hours
# Experimental: HPLC sample preparation protocol for total CoA and 4′-phosphopantetheine measurement: Samples were briefly washed with ice-cold PBS solution. Samples were sonicated thoroughly in 100 μl ice-cold PBS and centrifuged for 10-15 min at 4° C. to collect supernatant. Tris(2-carboxyethyl)phosphine hydrochloride (Sigma) (50 mM; 10 ul) was added to 50 μl sample supernatant and were incubated at room temperature for 15 min after vortex-mixing. Saturated ammonium sulfate solution or Millipore 3KD centrifugal filter units were used to remove proteins. The samples were centrifuged at 14,000 rpm for 15 min at 4° C. The clear supernatant (50 ul) or the filtrate was derivatized with 45 ul of ammonium 7-flurobenzo-2-oxa-1,3-doazole-4-sulfonate (SBD-F, Sigma) (1 mg/ml in borax buffer—0.1M containing 1 mM EDTA disodium, pH 9.5), and 5 ul ammonia solution (12.5% v/v, Merck Millipore) at 60° C. for 1 h. The derivatized samples were placed in a refrigerated autosampler (10° C.) in the Shimadzu HPLC system, and injected for total CoA and PPanSH analysis using optimized chromatographic separation conditions combined with fluorescence detection (described below).
# Chromatography separation condition: Chromatographic analysis was performed with a Shimadzu LC-10AC liquid chromatograph, SCL-10A system controller, SIL-10AC automatic sample injector and LC-10AT solvent delivery system. Shimadzu RF-20Axs fluorescence detector was used for derivatized sample extract analysis. The fluorescence detector was set at excitation and emission wavelengths of 385 nm and 515 nm, respectively. Signal output was collected digitally with Shimadzu Labsolution software and post run analysis was performed. […] The two mobile phases consisted of A: 100 mM ammonium acetate buffer (pH 4.5) and B: acetonitrile. Flow rate was maintained at 0.8 ml/min with a slow gradient elution: 0% B till 7 min, 20% B at 20 min, 20% B at 22 min, 50% B at 23 min, maintained at 50% B till 27 min, 0% B at 28 min and 7-10 min for column re-equilibration.
# The stability of CoA in PBS, serum-free medium, medium containing fetal calf (FCS) serum and in fetal calf serum was measured.
# Drosophila S2 cells = assay: HoPan treatment of Drosophila S2 cells in combination with CoA or 4′-phosphopantetheine; type: cell-based; settings: HoPan treated S2 cells
# Experimental: HoPan treatment of Drosophila S2 Cell in combination with CoA or 4′-phosphopantetheine treatment: Drosophila Schneider's S2 cells were maintained at standard conditions as explained above. Cells in the exponential phase of growth were used for all the experiments. Different indicated concentrations of CoA or 4′-phosphopantetheine (deuterium labelled PPanSH(D4) or unlabeled PPanSH) were added to S2 cells either in the presence or absence of 0.5 mM HoPan (Zhou Fang Pharm Chemical, China) for 48 h. Similarly, Drosophila S2 cells were treated with different concentrations of PPanSH(D4) at either 25° C. or 4° C. and cells were then harvested at various time points to access transport of PPanSH(D4). Stable isotope labelled PPanSH containing 4 deuterium atoms was purchased from Syncom (Groningen, The Netherlands) as a sodium salt (chemical structure is provided in FIG. 13A). As a read out cell count, intracellular total CoA and PPanSH levels (both labelled and unlabeled levels wherever appropriate) and histone acetylation levels were analyzed as explained below.
# as §1
# [3] = tested on: primary human fibroblasts from healthy controls, MCAD deficiency and PA deficiency patients; assay: Mitochondrial stress test (Seahorse), basal OCR of primary fibroblasts; type: cell-based; settings: 24 h treatment
# Excerpt: A study was thus performed to test the ability of S-acetyl-(S)-4′-phosphopantetheine to facilitate increased basal oxidative respiration in primary fibroblast cultures from patients diagnosed with MCAD deficiency and PA deficiency. Impaired metabolism were observed through functional measurements of respiration using a Seahorse XF Analyzer, where oxygen consumption rate (OCR) reflects oxidative respiration.
# Patient derived cell lines were subject to a mitochondrial stress test according to standard protocol with a cell seeding density of 30 k cells/well (n=2) in glucose free media. After incubation with various concentrations of S-acetyl-4′-phosphopantetheine or vehicle for 24 h, rescue potential was assessed by increase in basal OCR (average of six readings between 30-70 min), relative to control: basal OCR from vehicle treatment was set to 1.0. […] Experiment was performed in two replicates: systematically outlying values caused by seeding errors, port failures, or values within background were excluded from analysis.
# [4] = tested on: RNAi knock-down of CG7461 drosophila; assay: Drosophila model of VLCAD deficiency, survival in starvation; type: in vivo; settings: 5 mM, fed for 24 h
# Excerpt: (§2) The drosophila gene CG7461 is considered to be a good ortholog of ACADVL, as determined by Fly DIOPT (DRSC Integrative Ortholog Prediction Tool). RNAi approaches are an established method of modelling various diseases, and the GD stock library at the Vienna Drosophila Resource Centre (VDRC) contains a knock-down strain for CG7461 (VDRC ID 28028). Down-regulation of CG7461 by RNAi, results in reduced viability when metabolically challenged with starvation.
# Five virgin females from Act5C-GAL4 (RNAi expression driver line) and ten virgin males from UAS-GD 28028 (RNAi knock-down of CG7461) were crossed, to generate mutant progeny. In a similar manner, control flies were generated for the RNAi driver line (Gal4 control: Act5C-GAL4×GD 60000) and the upstream activating sequence (UAS control: UAS-GD 28028×Iso 31). From their offspring, 3-day old adult flies were allowed to feed for 24 h on glucose with and without 5 mM (S)-acetyl-4′-phosphopantetheine, then incubated on 2% agar medium without media. Dead flies were counted every 6 hours (up 90 hours) to obtain % survival over time. Rescue potential was assessed by the ability to survive in starvation conditions, expressed as the area under the curve (calculated by trapezium rule) of the cumulative frequency, relative to each control strain.
# [5] = tested on: MCAD patient fibroblast cell lines; assay: Mitochondrial stress test (Seahorse), reserve capacity of MCAD patient fibroblasts; type: cell-based, human; settings: MCAD fibroblasts, relative to vehicle treated control
# Excerpt: Medium-chain acyl-CoA dehydrogenase (MCAD) deficiency is a condition in which the body's capacity to break down fats with medium chain lengths is impaired, caused by mutations in the ACADM gene, which can lead to hypoglycaemia, and liver dysfunction. Left untreated, it can lead to seizures, coma and other serious health problems, with acute symptoms often preceded by extended periods of fasting or an infection with vomiting. Impaired metabolism were observed through functional measurements of respiration using a Seahorse XF Analyzer, where oxygen consumption rate (OCR) reflects oxidative respiration.
# A study was performed to test the Rescue potential of S-acetyl-4′-phosphopantetheine in primary patient fibroblast model of MCAD deficiency. MCAD patient fibroblast cell lines (genotyped as containing homozygous K304E mutations in ACADM) were subject to a mitochondrial stress test according to standard protocol with a cell seeding density of 30 k cells/well (n=2). Rescue potential was assessed by increase in reserve capacity: defined as the difference between basal and maximal OCR, controlled by subtracting values for non-mitochondiral respiration (after rotenone treatment). The study was performed in two replicates.
# [6] = tested on: CG34404 down-regulated drosophila; type: in vivo
# Excerpt: as §2, with “CG34404” for “CG7461”, “both MCCC1 and MCCC2,” for “ACADVL,”, “KK” for “GD”, “103335).” for “28028).”, “causes developmental delay.” for “results in reduced viability when metabolically challenged with starvation.”
# Five virgin females from UAS-KK 103335 (RNAi knock-down of CG34404) and ten virgin males from Act5C-GAL4 (heterozygous RNAi expression driver line with CyO balancer) were crossed, and allowed to lay for a period of 24 h in vials containing drosophila media with and without S-acetyl-4′-phosphopantetheine. Rescue potential was assessed by the number of eclosed male mutant or control flies every 6 h, as a percentage of total eclosed flies of each genotype, expressed as the AAUC (calculated by trapezium rule) of the cumulative eclosion relative to the control strain, as shown in FIG. 22A. Further, the region of relative AUCs are plotted in FIG. 22B under treatment conditions.
Compound,rescue of HoPan-induced impaired histone acetylation (HEK293 cells),rescue of HoPan-induced reduction in cell count (HEK293 cells),intracellular CoA level (HEK293 cells; HPLC),cell count of dPANK/fbl RNAi treated S2 cells [1],histone (protein) acetylation of dPANK/fbl RNAi treated S2 cells [1],histone (protein) acetylation of dPANK/fbl RNAi treated S2 cells ([1]; listed as PpanSH),stability of 4′-phosphopantetheine in serum [2],rescue of HoPan-induced decrease in cell count (Drosophila S2 cells; compound added to the medium),rescue of HoPan-induced histone acetylation defect (Drosophila S2 cells; compound added to the medium),"rescue of HoPan-induced histone acetylation defect (Drosophila S2 cells; compound added to the medium, listed as PpanSH)","intracellular levels of 4′-phosphopantetheine (Drosophila S2 cells; external supplementation, HPLC)",effect on basal OCR in patient fibroblasts compared with healthy controls ([3]; MCAD and PA patient fibroblasts),"basal OCR levels ([3]; primary fibroblasts, relative to vehicle controls)",ability to survive starvation relative to control flies (AUC of cumulative survival) [4],ability to survive starvation relative to control flies (AUC of cumulative survival) ([4]; listed as (S)-acetyl-4′-phosphopantetheine),spare respiratory capacity (reserve capacity) [5],reduction of the observed developmental delay ([6]; 2 mM in drosophila media) [cumulative fly days],toxicity in drosophila ([6]; in vivo)
CC(C)(COP(=O)(O)O)[C@@H](O)C(=O)NCCC(=O)NCCS [4′-phosphopantetheine],rescued,rescued,rescued,rescued,rescued the histone acetylation defect,rescues acetylation defects,stable,rescued,rescued the histone acetylation defect,rescues acetylation defects,significantly increased,–,–,–,–,–,–,–
S-acetyl-4′-phosphopantetheine,–,–,–,–,–,–,–,–,–,–,–,observed more strongly,consistently elevated,partially recovered towards control levels,partially recovered,improved spare respiratory capacity,27,some toxicity
